Results as given in patent US7074774B2, “Use of N-acetyl-D-glucosamine in the manufacture of pharmaceutical useful for treating cardio-cerebrovascular anoxemia” (Third Military Medical University Chinese People's …, priority 2001, dated 2006).

What was measured:
[1] = in vivo
Source text: N-acetyl-D-glucosanime can raise the resistance to oxygen deficiency of the small mice. • III. Toxicological test of the compound of formula (I), including: • 1. acute toxicity test: including tests of administrating medicine by oral, intravenous injection and maximum limit amount for administration; • 2. Ames test; • 3. micronucleus test of bone marrow cell of mouse; • 4. abnormal sexual test for the sperm of mouse; • 5. abnormal aberrance test for the chromosin of mouse's testis; • 6. chronic lethal test; • 7. subchronic toxicity (feed for 90 days) test; • 8. traditional aberrance-inducing test;

[2] = system: mice in oxygen deficiency at normal pressure; test: Resistance to oxygen-deficiency: model of oxygen deficiency at normal pressure; format: in vivo, mice of Kunming species
Method: Experimental research of the resistance to oxygen-deficiency of N-acetyl-Dglucosanime 1. Model of Oxygen Deficiency at Normal Pressure:
The mice were put into a sealed glass desiccator with a volumn of 200 ml and charged with 20 g of sodium lime to observe the survival time.
The mice of Kunming species, provided by the 3rd Military Medical University of P. R. China
Two groups had 24 mice in total, in the experimental group, two weeks before experiment, administrating N-acetyl-D-glucosanime by stomach infusion with a dosage of 0.05 g/kg, in the control group, they were normally fed.

[3] = system: rat with cerebral ischemia and Re-Infusion; test: Protecting effect in rat with cerebral ischemia and re-infusion (four arteries ligation model); format: in vivo, Wistar rat
Source text: The following experimental example is used to illustrate the effect of resisting cardiac and cerebral ischemia as well as oxygen-deficiency, and the low toxicity of the compound of the present invention (the compound of formula (I)). • I. The protecting effect of N-acetyl-D-glucosamine in rat with cerebral ischemia and Re-Infusion • 1. Animal: Wistar rat provided by the 3rd Military Medical University P.R. China. Half of them are male, the other are female. • 2. Method for making model: the model is made by four arteries ligation method to cause the rat to be cerebral ischemia, in which for each rat, the vertebra artery in the vertebra foramen of the second cervical vertebra is blocked by hot coagulation with electric coagulator, then separate the two common carotid artery in the front of it, after that, remain the surgical thread jacket, sewing up. Next day, after the animal is recovered from anesthesia, open the sewing thread in the front of the animal, clamp the two common carotid artery with artery clip, it needs 20 min. in total. […] Grouping: the animals are divided into four groups (eight animals in each group) […]
Astragalus Group: that is, before the animal is treated, administrating Astragalus injection solution by abdominal injection.
Astragalus+N-acetyl-D-glucosanime Group: that is, 30 min before clamping, administrating a mixture injection solution of 0.25 g/kg of N-acetyl-D-glucosanime and 2 g/kg of Astragalus by abdominal injection.
The control Group: not administrating any medicament, but injecting physiological salt solution with the same volume.
The animals in each group are all fed in standard. In the process of operation, please pay attention to asepsis.
Abnormal ratio of the water content in the brain (by dry-wet weight method):
Scoring the symptoms of nerve behavior • 0 score: no symptom of nerve defect, moving normally • 1 score: cannot extend the front claw at the opposite side • 2 score: when walking, the body rotates toward the hemiplegia side • 3 score: the body collapse down toward the hemiplegia side • 4 score: not capable of walking spontaneously, losing consciousness 5.

CC(=O)N[C@H]1C(O)O[C@H](CO)[C@@H](O)[C@@H]1O (stereo partly drawn) [N-acetyl-D-glucosanime, N-acetyl-D-glucosamine]
acute test dosage relative to the injection dosage for human being [1]: 300 times
dosage taken at which acute toxicosis reaction had not appeared [1]: more than 2 g/kg
maximum dosage with no toxicosis reaction ([1]; 4 weeks): 1 g/kg
Average survival period ([2]; 0.05 g/kg by stomach infusion, two weeks before experiment, sealed 200 ml desiccator with 20 g sodium lime, versus control group): much longer than that of the control group
resistance to oxygen deficiency of the small mice ([2]; conclusion): can raise
cerebral edema degree caused by cerebral ischemia and re-infusion ([3]; conclusion, dosage 0.025 g/kg): decreased obviously
corresponding nerve symptoms ([3]; conclusion, dosage 0.025 g/kg): released
survival rate ([3]; conclusion, dosage 0.025 g/kg): raised obviously
Water content of brain ([3]; dry-wet weight method, medicament before clamping (N-acetyl-D-glucosanime 0.25 g/kg, Astragalus 2 g/kg in mixture), control 70.84%): 66.2%
Survival ([3]; four arteries ligation, 20 min clamping, medicament before clamping (N-acetyl-D-glucosanime 0.25 g/kg, Astragalus 2 g/kg in mixture), control 62.5%): 87.5%
Abnormal ratio (symptoms of nerve behavior) ([3]; medicament before clamping (N-acetyl-D-glucosanime 0.25 g/kg, Astragalus 2 g/kg in mixture), control 75%): 50%
